# ChEMBL document CHEMBL1134109, “Biological evaluation of hepatitis C virus helicase inhibitors” (Bioorg Med Chem Lett, 2001)
# Target: NS3 (Hepatitis C virus) (UniProt A3EZJ3)
# Assay: Inhibitory activity against hepatitis C virus helicase at 25 ug/mL
# Settings: Hepacivirus hominis
# NS3 (Hepatitis C virus), sequence (A3EZJ3 as listed by the source): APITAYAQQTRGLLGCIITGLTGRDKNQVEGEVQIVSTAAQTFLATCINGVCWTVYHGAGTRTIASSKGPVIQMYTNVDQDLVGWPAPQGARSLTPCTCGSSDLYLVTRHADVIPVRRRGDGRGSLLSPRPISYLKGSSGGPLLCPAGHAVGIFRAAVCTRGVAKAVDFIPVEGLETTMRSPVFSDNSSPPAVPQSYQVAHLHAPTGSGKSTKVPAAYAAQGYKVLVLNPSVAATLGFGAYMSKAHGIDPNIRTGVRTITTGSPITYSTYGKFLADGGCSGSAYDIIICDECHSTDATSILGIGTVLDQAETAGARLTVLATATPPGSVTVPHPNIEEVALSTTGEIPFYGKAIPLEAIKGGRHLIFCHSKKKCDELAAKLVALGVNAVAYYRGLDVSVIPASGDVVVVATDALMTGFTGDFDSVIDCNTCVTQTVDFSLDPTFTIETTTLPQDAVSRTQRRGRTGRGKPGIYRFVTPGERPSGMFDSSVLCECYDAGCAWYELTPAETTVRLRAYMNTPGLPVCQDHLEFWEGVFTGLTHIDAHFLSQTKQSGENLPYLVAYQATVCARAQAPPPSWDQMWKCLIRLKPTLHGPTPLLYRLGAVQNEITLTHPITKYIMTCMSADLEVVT
row,Structure (SMILES),inhibition [%]
1,O=C(CCC(=O)Nc1nc2ccccc2[nH]1)Nc1nc2ccccc2[nH]1,6
2,O=C(NCCCCCCNC(=O)Nc1ccc(-c2nc3ccccc3[nH]2)cc1)Nc1ccc(-c2nc3ccccc3[nH]2)cc1,28
3,O=C(CCCCCCC(=O)Nc1ccc(-c2nc3ccccc3[nH]2)cc1)Nc1ccc(-c2nc3ccccc3[nH]2)cc1,75
4,O=C(/C=C/C(=O)Nc1ccc(-c2nc3ccccc3[nH]2)cc1)Nc1ccc(-c2nc3ccccc3[nH]2)cc1,75
5,O=C(CCCCCCCC(=O)Nc1nc2ccccc2[nH]1)Nc1nc2ccccc2[nH]1,6
6,O=C(CCCCC(=O)Nc1nc2ccccc2[nH]1)Nc1nc2ccccc2[nH]1,6
7,O=C(CCCCC(=O)Nc1nccs1)Nc1nccs1,10
8,O=C(NCCCCNC(=O)Nc1ccc(-c2nc3ccccc3[nH]2)cc1)Nc1ccc(-c2nc3ccccc3[nH]2)cc1,20
9,O=C(CCCCC(=O)Nc1ccc(-c2nc3ccccc3[nH]2)cc1)Nc1ccc(-c2nc3ccccc3[nH]2)cc1,75
10,O=C(CCCCCCC(=O)Nc1nc2ccccc2[nH]1)Nc1nc2ccccc2[nH]1,6
11,O=C(Nc1ccc(-c2nc3ccccc3[nH]2)cc1)c1ccc(C(=O)Nc2ccc(-c3nc4ccccc4[nH]3)cc2)cc1,75
12,Cc1ccc2nc(-c3ccc(NC(=O)CCC(=O)Nc4ccc(-c5nc6ccc(C)cc6s5)cc4)cc3)sc2c1,14
